Assay results as given in PubChem BioAssay AID256 (DTP/NCI, 2004).
Where “and” joins values, the source holds several entries; their conditions need not be identical. Equal values may be shown once. Inconclusive results and toxic doses are left out.

Tested on: CD2F1 mice, L1210 leukemia ip, survival T/C
Experiment: NCI In Vivo Anticancer Drug Screen. Data for tumor model L1210 Leukemia (intraperitoneal) in CD2F1 (CDF1) mice
Conditions: higher = longer survival
In short: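 In this screen, transplantable tumors were grown in mice given either the compound or its vehicle. Results were expressed as the treated measurement relative to the control measurement.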

[1] = endpoint: mean survival time, dose: 50.0 mg/kg/injection, schedule: Q04DX003 (ip), vehicle: saline with Tween-80
[2] = endpoint: mean survival time, dose: 100.0 mg/kg/injection, schedule: Q04DX003 (ip), vehicle: saline with Tween-80
[3] = endpoint: mean survival time, dose: 200.0 mg/kg/injection, schedule: Q04DX003 (ip), vehicle: saline with Tween-80
[4] = endpoint: mean survival time, dose: 100.0 mg/kg/injection, schedule: Q01DX001 (ip), vehicle: saline with Tween-80
[5] = endpoint: mean survival time, dose: 200.0 mg/kg/injection, schedule: Q01DX001 (ip), vehicle: saline with Tween-80
[6] = endpoint: mean survival time, dose: 400.0 mg/kg/injection, schedule: Q01DX001 (ip), vehicle: saline with Tween-80
[7] = endpoint: mean survival time, dose: 12.5 mg/kg/injection, schedule: Q04DX002 (ip), vehicle: saline with Tween-80
[8] = endpoint: mean survival time, dose: 25.0 mg/kg/injection, schedule: Q04DX002 (ip), vehicle: saline with Tween-80
[9] = endpoint: mean survival time, dose: 50.0 mg/kg/injection, schedule: Q04DX002 (ip), vehicle: saline with Tween-80
[10] = endpoint: mean survival time, dose: 100.0 mg/kg/injection, schedule: Q01DX001 (ip), vehicle: saline
[11] = endpoint: mean survival time, dose: 200.0 mg/kg/injection, schedule: Q01DX001 (ip), vehicle: saline
[12] = endpoint: mean survival time, dose: 400.0 mg/kg/injection, schedule: Q01DX001 (ip), vehicle: saline
[13] = endpoint: mean survival time, dose: 100.0 mg/kg/injection, schedule: Q01DX009 (ip), vehicle: saline with Tween-80
[14] = endpoint: mean survival time, dose: 200.0 mg/kg/injection, schedule: Q01DX009 (ip), vehicle: saline with Tween-80
[15] = endpoint: mean survival time, dose: 400.0 mg/kg/injection, schedule: Q01DX009 (ip), vehicle: saline with Tween-80
[16] = endpoint: mean survival time, dose: 400.0 mg/kg/injection, schedule: Q04DX003 (ip), vehicle: saline with Tween-80
[17] = endpoint: mean survival time, dose: 100.0 mg/kg/injection, schedule: Q01DX009 (ip), vehicle: saline
[18] = endpoint: mean survival time, dose: 200.0 mg/kg/injection, schedule: Q01DX009 (ip), vehicle: saline
[19] = endpoint: mean survival time, dose: 50.0 mg/kg/injection, schedule: Q01DX009 (ip), vehicle: saline with Tween-80
[20] = endpoint: mean survival time, dose: 100.0 mg/kg/injection, schedule: Q04DX002 (ip), vehicle: saline with Tween-80
[21] = endpoint: mean survival time, dose: 200.0 mg/kg/injection, schedule: Q04DX002 (ip), vehicle: saline with Tween-80
[22] = endpoint: mean survival time, dose: 400.0 mg/kg/injection, schedule: Q04DX002 (ip), vehicle: saline with Tween-80

O=C1N(CCO)CNC1(c1ccccc1)c1ccccc1
T/C [1]: 94 % of control | T/C [2]: 107 % of control | T/C [3]: 98 % of control

CCC(C(=O)O)c1ccc(-c2ccccc2)cc1 (stereo unspecified)
T/C [4]: 91 % of control | T/C [5]: 93 % of control | T/C [6]: 92 % of control

CON(C)CCOC(=O)c1ccc([N+](=O)[O-])cc1
T/C [4]: 100 % of control | T/C [5]: 107 % of control | T/C [6]: 105 % of control

O=C1CCCCCCC(=O)CCCCCC1
T/C [7]: 105 % of control | T/C [8]: 101 % of control | T/C [9]: 105 % of control

CC(C)NC(=O)/C=C/C(=O)O
T/C (endpoint: mean survival time, dose: 100.0 mg/kg/injection, schedule: Q04DX003 (ip), vehicle: saline): 100 % of control | T/C (endpoint: mean survival time, dose: 200.0 mg/kg/injection, schedule: Q04DX003 (ip), vehicle: saline): 100 % of control | T/C (endpoint: mean survival time, dose: 400.0 mg/kg/injection, schedule: Q04DX003 (ip), vehicle: saline): 100 % of control

COP(=O)(O)OCC1OC(n2cnc3c(N)ncnc32)C(O)C1O (stereo unspecified)
T/C (endpoint: mean survival time, dose: 12.5 mg/kg/injection, schedule: Q01DX005 (ip), vehicle: distilled water + Tween-80): 96 % of control | T/C (endpoint: mean survival time, dose: 25.0 mg/kg/injection, schedule: Q01DX005 (ip), vehicle: distilled water + Tween-80): 102 % of control | T/C (endpoint: mean survival time, dose: 50.0 mg/kg/injection, schedule: Q01DX005 (ip), vehicle: distilled water + Tween-80): 106 % of control | T/C (endpoint: mean survival time, dose: 100.0 mg/kg/injection, schedule: Q01DX005 (ip), vehicle: distilled water + Tween-80): 100 % of control | T/C (endpoint: mean survival time, dose: 200.0 mg/kg/injection, schedule: Q01DX005 (ip), vehicle: distilled water + Tween-80): 106 % of control

COC(=O)CC(CC(=O)OC)N1CC=CC1
T/C [10]: 100 % of control | T/C [11]: 98 % of control | T/C [12]: 108 % of control

CC1CNC(=S)S1 (stereo unspecified)
T/C [13]: 94 % of control | T/C [2]: 97 % of control | T/C [14]: 109 % of control | T/C [3]: 94 % of control | T/C [15]: 105 % of control | T/C [16]: 101 % of control

Nc1cc(Cl)c2ncn(C3OC(CO)C(O)C3O)c2n1 (stereo unspecified)
T/C (endpoint: mean survival time, dose: 50.0 mg/kg/injection, schedule: Q01DX009 (ip), vehicle: saline): 107 % of control | T/C [17]: 104 % of control | T/C [18]: 104 % of control

CC(CCC(=O)O)C1CCC2C3C(O)CC4CC(O)CCC4(C)C3CC(O)C12C (stereo unspecified)
T/C [4]: 96 % of control | T/C [5]: 100 % of control | T/C [6]: 96 % of control

CC1(C)CC(=O)NC1=O
T/C [17]: 100 % of control | T/C [18]: 102 % of control | T/C (endpoint: mean survival time, dose: 400.0 mg/kg/injection, schedule: Q01DX009 (ip), vehicle: saline): 94 % of control

CCCNCC(=O)O[C@]1(CC)C(=O)OCc2c1cc1n(c2=O)Cc2cc3ccccc3nc2-1
T/C (endpoint: median survival time, dose: 7.5 mg/kg/injection, schedule: Q04DX002 (ip), vehicle: saline): 112 % of control | T/C (endpoint: median survival time, dose: 30.0 mg/kg/injection, schedule: Q04DX002 (ip), vehicle: saline): 159 % of control and 204 % of control | T/C (endpoint: median survival time, dose: 60.0 mg/kg/injection, schedule: Q04DX002 (ip), vehicle: saline): 116 % of control and 106 % of control

O=C(COc1cccc(Cl)c1)NCc1ccc(Cl)cc1
T/C [2]: 99 % of control | T/C [3]: 101 % of control | T/C [16]: 91 % of control

Cc1ccc(S(=O)(=O)OCC(O)C2OCOC3COCOC32)cc1 (stereo unspecified)
T/C (endpoint: mean survival time, dose: 100.0 mg/kg/injection, schedule: Q01DX001 (ip), vehicle: Klucel (hydroxypropylcellulose) (HPC)): 101 % of control | T/C (endpoint: mean survival time, dose: 200.0 mg/kg/injection, schedule: Q01DX001 (ip), vehicle: Klucel (hydroxypropylcellulose) (HPC)): 103 % of control | T/C (endpoint: mean survival time, dose: 400.0 mg/kg/injection, schedule: Q01DX001 (ip), vehicle: Klucel (hydroxypropylcellulose) (HPC)): 98 % of control | T/C (endpoint: mean survival time, dose: 600.0 mg/kg/injection, schedule: Q01DX001 (ip), vehicle: Klucel (hydroxypropylcellulose) (HPC)): 93 % of control

COC(=O)C1C2C=CC(C3C=CC32)C1C(=O)OC (stereo unspecified)
T/C [13]: 97 % of control | T/C [14]: 94 % of control | T/C [15]: 95 % of control

Oc1c(C(Nc2ccccc2)c2ccccc2)ccc2cccnc12 (stereo unspecified)
T/C [10]: 97 % of control | T/C [11]: 97 % of control | T/C [12]: 100 % of control

CC(C)CC(NC(=O)CN)C(=O)O (stereo unspecified)
T/C (endpoint: mean survival time, dose: 100.0 mg/kg/injection, schedule: Q04DX002 (ip), vehicle: saline): 93 % of control | T/C (endpoint: mean survival time, dose: 200.0 mg/kg/injection, schedule: Q04DX002 (ip), vehicle: saline): 96 % of control | T/C (endpoint: mean survival time, dose: 400.0 mg/kg/injection, schedule: Q04DX002 (ip), vehicle: saline): 107 % of control

CC(Nc1ccccc1C(=O)O)C(=O)O (stereo unspecified)
T/C [2]: 102 % of control | T/C [3]: 104 % of control | T/C [16]: 104 % of control

C=CC1(O)CCCCC1
T/C [4]: 100 % of control | T/C [5]: 100 % of control | T/C [6]: 97 % of control

CCS(=O)(=O)C(CCC#N)(CCC#N)S(=O)(=O)CC
T/C [10]: 95 % of control | T/C [11]: 103 % of control

[Cl][Hg][c]1ccc2ccccc2c1
T/C [7]: 90 % of control | T/C [8]: 102 % of control | T/C [9]: 111 % of control

COc1ccc(N2CC=C(c3ccccc3)OP2(=O)N(CCCl)CCCl)cc1 (stereo unspecified)
T/C (endpoint: mean survival time, dose: 31.25 mg/kg/injection, schedule: Q01DX001 (ip), vehicle: saline): 102 % of control | T/C (endpoint: mean survival time, dose: 62.5 mg/kg/injection, schedule: Q01DX001 (ip), vehicle: saline): 100 % of control | T/C (endpoint: mean survival time, dose: 125.0 mg/kg/injection, schedule: Q01DX001 (ip), vehicle: saline): 100 % of control | T/C (endpoint: mean survival time, dose: 250.0 mg/kg/injection, schedule: Q01DX001 (ip), vehicle: saline): 100 % of control | T/C (endpoint: mean survival time, dose: 500.0 mg/kg/injection, schedule: Q01DX001 (ip), vehicle: saline): 100 % of control

CC1CCC(NC2=NCCO2)C(C)C1 (stereo unspecified)
T/C (endpoint: mean survival time, dose: 12.5 mg/kg/injection, schedule: Q01DX009 (ip), vehicle: saline with Tween-80): 105 % of control | T/C (endpoint: mean survival time, dose: 25.0 mg/kg/injection, schedule: Q01DX009 (ip), vehicle: saline with Tween-80): 112 % of control | T/C (endpoint: mean survival time, dose: 25.0 mg/kg/injection, schedule: Q04DX003 (ip), vehicle: saline with Tween-80): 101 % of control | T/C [19]: 101 % of control | T/C [1]: 101 % of control

CC1=NN(c2cccc(S(=O)(=O)O)c2)C(=O)C1N=Nc1cc(Cl)cc(S(=O)(=O)O)c1O.CC1=NN(c2cccc(S(=O)(=O)O)c2)C(=O)C1N=Nc1cc(Cl)cc(S(=O)(=O)O)c1O.[Cr] (stereo unspecified)
T/C (endpoint: median survival time, dose: 25.0 mg/kg/injection, schedule: Q01DX009 (ip), vehicle: saline): 113 % of control | T/C (endpoint: median survival time, dose: 50.0 mg/kg/injection, schedule: Q01DX009 (ip), vehicle: saline): 107 % of control | T/C (endpoint: median survival time, dose: 100.0 mg/kg/injection, schedule: Q01DX009 (ip), vehicle: saline): 101 % of control | T/C (endpoint: median survival time, dose: 200.0 mg/kg/injection, schedule: Q01DX009 (ip), vehicle: saline): 118 % of control | T/C (endpoint: median survival time, dose: 400.0 mg/kg/injection, schedule: Q01DX009 (ip), vehicle: saline): 120 % of control

Cc1ccc(S(=O)(=O)NN2C(=O)c3ccccc3C2=O)cc1
T/C [8]: 96 % of control | T/C [9]: 96 % of control | T/C [20]: 100 % of control | T/C [21]: 96 % of control

CC(C)(C)C#C/C(=N\Nc1ccc([N+](=O)[O-])cc1[N+](=O)[O-])c1ccccc1
T/C [4]: 94 % of control | T/C [5]: 89 % of control | T/C [6]: 86 % of control

CCn1ccc(=O)nc1
T/C [7]: 95 % of control | T/C [8]: 95 % of control | T/C [9]: 106 % of control

COc1cc(C=O)ccc1OC(=O)Nc1cc([N+](=O)[O-])ccc1Cl
T/C [19]: 98 % of control and 102 % of control | T/C [4]: 93 % of control | T/C [20]: 92 % of control and 102 % of control | T/C [2]: 93 % of control | T/C [5]: 108 % of control | T/C [21]: 91 % of control and 92 % of control | T/C [3]: 107 % of control | T/C [6]: 96 % of control | T/C [22]: 88 % of control and 96 % of control | T/C [16]: 100 % of control

CC(C)OC(=O)N(C(=O)OC(C)C)c1ccccc1
T/C [20]: 94 % of control | T/C [21]: 108 % of control | T/C [22]: 94 % of control
